Tested on: 188146-221-R-J1-PDC complex spheroid viability
Test: Anticancer human tumor 188146-221-R-J1-PDC patient-derived colon adenocarcinoma cell line growth inhibition [POLQ]
Conditions: for IC50: curve of first compound; for viability, T/C: stronger effect = lower value; active = viability on the fitted dose curve at most 10% of control; inactive = the rest
Description: Multicellular complex tumor spheroid response to Polymerase (POL) inhibitors (novobiocin, ART-558, RP6685) in combination with a variety of drugs and investigational agents in selected tumor cell lines
The POL inhibitors (novobiocin, ART-558, and RP6685) were evaluated both individually and in combination with standard of care and investigational anticancer small molecules within a complex spheroid model of solid tumors. . Complex spheroids include a stromal component modeled by human endothelial cells (HUVEC) and fibroblasts modeled by human mesenchymal stem cells (MSCs). The concentration ranges selected for each drug and investigational agent were based upon clinically achievable concentrations if the clinical Cmax of the agent was known.
Compounds. The drugs and investigational agents: novobiocin (NSC847541), ART-558 (NSC835418), RP-6685 (NSC848927), peposertib (NSC802822), ceralasertib (NSC780249), elimusertib (NSC800525), camonsertib (NSC841442), AZD-1390 (NSC803789), olaparib (NSC753686), talazoparib (NSC767125), rucaparib (NSC756644), sotorasib (NSC818433), MRTX-1133 (NSC836407), SN-38 (NSC673596), topotecan (NSC609699), epotoside (NSC141540), doxorubicin (NSC123127), gemcitabine (NSC613327), 5-fluorouracil (NSC19893), paclitaxel (NSC125973), vemurafenib (NSC761431), MSA-2 (NSC828583), SN-011 (NSC837082), adavosertib (NSC754352), prexasertib (NSC758257), carboplatin (NSC241240) and oxaliplatin (NSC266046), were obtained from the National Cancer Institute (NCI) Developmental Therapeutics Program Chemical Repository (21). The FDA-approved anticancer drug set is available from the Developmental Therapeutics Program at https://dtp.cancer.gov/organization/dscb/obtaining/. […] The stock solutions were prepared in dimethyl sulfoxide (DMSO, Sigma-Aldrich, St. Louis, MO, cat. D2650), except for the platinum compounds which were prepared in saline (Quality Biological, Gaithersburg, MD, cat. 114-055-101), at 800-fold the tested concentration and stored at -70 degrees C prior to their use. All drugs and investigational agents were tested over a range starting from a high concentration at or near the clinical Cmax and decreasing in half-log increments. If the clinical Cmax for an agent had not been determined, the highest concentration tested was 10 microM, except for SN-38, which was tested at a high concentration of 1 microM.
Cell Culture. All cells were maintained in an incubator at 37 degrees C and 5% CO2 with 95% humidity. The PDC lines were cultured according to standard operating procedures established by the NCI PDMR (https://pdmr.cancer.gov). Table 3 of the manuscript, lists the cell lines along with the number of the three cell types plated to form the mct-spheroids and media for tumor cell growth. After thawing, all PDC lines, except 997537-175-T-J1-PDC and 415267-285-R-J2-PDC, were cultured in Matrigel-coated flasks prepared with a working solution of 1X Ham's F-12 nutrient mix, without supplementation (Thermo Fisher Scientific, cat. 11765054), 100 U/mL penicillin-streptomycin (Thermo Fisher Scientific, cat. 15140122), and 2.5% Matrigel (Corning Inc., Corning, NY, cat. 354248) for the first three passages. The two PDC lines 997537-175-T-J1-PDC and 415267-285-R-J2-PDC were cultured on uncoated flasks. The 857933-349-R-J2-PDC line was cultured in 6C/Colon 1B media containing advanced DMEM/F-12 (Thermo Fisher Scientific, cat. 12634028), 10 mM HEPES (Thermo Fisher Scientific, cat. 15630080), 1X GlutaMAX supplement (Thermo Fisher Scientific, cat. 35050061), 0.1 mg/mL primocin (InvivoGen, San Diego, CA, cat. ant-pm-2), 10% defined fetal bovine serum, heat inactivated (HyClone Laboratories Inc., Logan, UT, cat. SH30070.03HI), 50% L-WRN conditioned media (ATCC, cat. CRL-3276), 1.25 mM N-Acetyl-L-cysteine (Sigma-Aldrich, cat. A9165), 10 mM nicotinamide (Sigma-Aldrich, cat. N0636), 1X B-27 supplement (Thermo Fisher Scientific, cat. 17504044), 1X N-2 supplement (Thermo Fisher Scientific, cat. […]

[1] = second compound 0.0316 µM, first compound 0.0316 µM
[2] = second compound 0.0316 µM, first compound 0.1 µM
[3] = second compound 0.0316 µM, first compound 0.316 µM
[4] = second compound 0.0316 µM, first compound 1 µM
[5] = second compound 0.0316 µM, first compound 3.16 µM
[6] = second compound 0.0316 µM, first compound 10 µM
[7] = second compound 0.1 µM, first compound 0.0316 µM
[8] = second compound 0.1 µM, first compound 0.1 µM
[9] = second compound 0.1 µM, first compound 0.316 µM
[10] = second compound 0.1 µM, first compound 1 µM
[11] = second compound 0.1 µM, first compound 3.16 µM
[12] = second compound 0.1 µM, first compound 10 µM
[13] = second compound 0.316 µM, first compound 0.0316 µM
[14] = second compound 0.316 µM, first compound 0.1 µM
[15] = second compound 0.316 µM, first compound 0.316 µM
[16] = second compound 0.316 µM, first compound 1 µM
[17] = second compound 0.316 µM, first compound 3.16 µM
[18] = second compound 0.316 µM, first compound 10 µM
[19] = second compound 1 µM, first compound 0.0316 µM
[20] = second compound 1 µM, first compound 0.1 µM
[21] = second compound 1 µM, first compound 0.316 µM
[22] = second compound 1 µM, first compound 1 µM
[23] = second compound 1 µM, first compound 3.16 µM
[24] = second compound 1 µM, first compound 10 µM
[25] = second compound 3.16 µM, first compound 0.0316 µM
[26] = second compound 3.16 µM, first compound 0.1 µM
[27] = second compound 3.16 µM, first compound 0.316 µM
[28] = second compound 3.16 µM, first compound 1 µM
[29] = second compound 3.16 µM, first compound 3.16 µM
[30] = second compound 3.16 µM, first compound 10 µM
[31] = second compound 10 µM, first compound 0.0316 µM
[32] = second compound 10 µM, first compound 0.1 µM
[33] = second compound 10 µM, first compound 0.316 µM
[34] = second compound 10 µM, first compound 1 µM
[35] = second compound 10 µM, first compound 3.16 µM
[36] = second compound 10 µM, first compound 10 µM
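Also: spheroids exposed to compounds for seven days.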

C=CC(=O)N1CCN(c2nc(=O)n(-c3c(C)ccnc3C(C)C)c3nc(-c4c(O)cccc4F)c(F)cc23)C(C)C1 (stereo unspecified) + COC1C(OC(N)=O)C(O)C(Oc2ccc3c(O)c(NC(=O)c4ccc(O)c(CC=C(C)C)c4)c(=O)oc3c2C)OC1(C)C
> 10000 nM: IC50 (second compound 0.0316 µM) | IC50 (second compound 0.1 µM) | IC50 (second compound 0.316 µM) | IC50 (second compound 1 µM) | IC50 (second compound 3.16 µM) | IC50 (second compound 10 µM)
inactive: viability, T/C [1] 103% | viability, T/C [2] 97% | viability, T/C [3] 85.7% | viability, T/C [4] 99.1% | viability, T/C [5] 98.7% | viability, T/C [6] 72.4% | viability, T/C [7] 107% | viability, T/C [8] 107% | viability, T/C [9] 94.6% | viability, T/C [10] 105% | viability, T/C [11] 88.1% | viability, T/C [12] 92.6% | viability, T/C [13] 110% | viability, T/C [14] 107% | viability, T/C [15] 103% | viability, T/C [16] 110% | viability, T/C [17] 95.3% | viability, T/C [18] 83.6% | viability, T/C [19] 93.2% | viability, T/C [20] 105% | viability, T/C [21] 113% | viability, T/C [22] 101% | viability, T/C [23] 101% | viability, T/C [24] 90.4% | viability, T/C [25] 107% | viability, T/C [26] 109% | viability, T/C [27] 100% | viability, T/C [28] 101% | viability, T/C [29] 90.3% | viability, T/C [30] 87.2% | viability, T/C [31] 96% | viability, T/C [32] 107% | viability, T/C [33] 108% | viability, T/C [34] 97.5% | viability, T/C [35] 115% | viability, T/C [36] 93.7%

CC1COCCN1c1cc(-c2ccnn2C)c2ccnc(-c3ccn[nH]3)c2n1 (stereo unspecified) + COC1C(OC(N)=O)C(O)C(Oc2ccc3c(O)c(NC(=O)c4ccc(O)c(CC=C(C)C)c4)c(=O)oc3c2C)OC1(C)C
193 nM: IC50 (second compound 0.316 µM)
204 nM: IC50 (second compound 3.16 µM)
252 nM: IC50 (second compound 1 µM)
159 nM: IC50 (second compound 10 µM)
207 nM: IC50 (second compound 0.0316 µM)
175 nM: IC50 (second compound 0.1 µM)
inactive: viability, T/C [1] 81.5% | viability, T/C [2] 67.3% | viability, T/C [3] 39.3% | viability, T/C [4] 23.3% | viability, T/C [5] 16.3% | viability, T/C [6] 14% | viability, T/C [7] 94.2% | viability, T/C [8] 57.8% | viability, T/C [9] 44.5% | viability, T/C [10] 21.3% | viability, T/C [11] 18.1% | viability, T/C [12] 14.1% | viability, T/C [13] 78.2% | viability, T/C [14] 66.3% | viability, T/C [15] 37.2% | viability, T/C [16] 22.4% | viability, T/C [17] 17.2% | viability, T/C [18] 13.3% | viability, T/C [19] 83.3% | viability, T/C [20] 74.2% | viability, T/C [21] 43.3% | viability, T/C [22] 22.9% | viability, T/C [23] 16.9% | viability, T/C [24] 13.2% | viability, T/C [25] 85.5% | viability, T/C [26] 61.6% | viability, T/C [27] 46.2% | viability, T/C [28] 19.4% | viability, T/C [29] 18.3% | viability, T/C [30] 14.1% | viability, T/C [31] 79.9% | viability, T/C [32] 54.5% | viability, T/C [33] 44.6% | viability, T/C [34] 19.9% | viability, T/C [35] 16.7% | viability, T/C [36] 17%

CC1COCCN1c1cc(C2(O)CC3CCC(C2)O3)c2cnn(-c3ccn[nH]3)c2n1 (stereo unspecified) + COC1C(OC(N)=O)C(O)C(Oc2ccc3c(O)c(NC(=O)c4ccc(O)c(CC=C(C)C)c4)c(=O)oc3c2C)OC1(C)C
inactive: viability, T/C [1] 93.4% | viability, T/C [2] 68.8% | viability, T/C [3] 53.1% | viability, T/C [4] 25.5% | viability, T/C [5] 18% | viability, T/C [7] 94.5% | viability, T/C [8] 78.5% | viability, T/C [9] 56.9% | viability, T/C [10] 30.9% | viability, T/C [11] 21.2% | viability, T/C [13] 94.7% | viability, T/C [14] 74.1% | viability, T/C [15] 57% | viability, T/C [16] 35.4% | viability, T/C [17] 17% | viability, T/C [19] 93.8% | viability, T/C [20] 79.3% | viability, T/C [21] 57.2% | viability, T/C [22] 30.6% | viability, T/C [23] 17.5% | viability, T/C [25] 82.1% | viability, T/C [26] 67.2% | viability, T/C [27] 51.3% | viability, T/C [28] 26.3% | viability, T/C [29] 14.9% | viability, T/C [31] 90.5% | viability, T/C [32] 62.4% | viability, T/C [33] 41.8% | viability, T/C [34] 22.8% | viability, T/C [35] 19%
425 nM: IC50 (second compound 0.316 µM) | IC50 (second compound 1 µM)
active: viability, T/C [6] 9.03% | viability, T/C [12] 8.19% | viability, T/C [18] 9.09% | viability, T/C [24] 9.21% | viability, T/C [30] 8.05% | viability, T/C [36] 7.81%
428 nM: IC50 (second compound 0.1 µM)
295 nM: IC50 (second compound 0.0316 µM)
195 nM: IC50 (second compound 10 µM)
299 nM: IC50 (second compound 3.16 µM)

— PubChem BioAssay AID1963851 (Molecular Pharmacology Branch, DTP, NCI, 2024)
